Results as given in patent publication US11046691B1 (IDEAYA BIOSCIENCES, INC., priority 2018, dated 2021).

Target: hMAT2A (Homo sapiens (Human), UniProt P31153)
Test: Phosphate Sensor Fluorescence Assay (MAT2A enzyme inhibition)
Format: biochemical
Conditions: L-methionine 500 uM, ATP 500 uM, class symbols
Protocol: The ability of the compound of present disclosure to inhibit MAT2A enzyme was determined using the Malachite Green or Phosphate Sensor Fluorescence Assay described below.
B. Phosphate Sensor Fluorescence Assay
MAT2A enzyme is incubated with a test compound in DMSO or DMSO and its substrates (L-methionine and ATP) in a microtiter plate. The enzymatic reaction is stopped by the addition of Working Phosphate Sensor Mixture. The plate is analyzed for fluorescence at 450 nm.
Assay Buffer: 50 mM Tris, pH 7.5/50 mM KCl/10 mM MgCl2/0.01% Brij-35/1 mM DTT/0.1% BGG/40 nM PNP/6 uM 7-MEG
L-methionine: 500 uM before the addition of Working Phosphate Sensor Mixture
ATP: 500 uM before the addition of Working Phosphate Sensor Mixture
Test compounds or DMSO were added to the appropriate well suing D300e digital dispenser. 5 μl/well of Assay Buffer was added to the wells corresponding to the negative control and 5 μl/well of MAT2A was added to all the wells except for those corresponding to the negative control. After incubating the plate at room temperature for 15 minutes, 5 μl/well of the 1 mM L-methionine/1 mM ATP mixture was added to all wells. The plate was centrifuged at 1000 rpm for 1 minute and then incubated at room temperature for 1 hour. 5 μl of the Working Phosphate Sensor Mixture was added to all wells and the plate was centrifuged at 1000 rpm for 1 minute. The plate was read for fluorescence at 450 nm after exciting at 430 nm.
Percent inhibition was calculated in Chemical and Biological Information System (CBIS), (ChemInnovation Software Inc.). Curves were fitted by CBIS as % inhibition vs. log [compound concentration] using a 4-parameter inhibition model. Fit=(A+((B−A)/(1+((C/x)^D)))) Res=(y−fit)

hMAT2A, sequence (P31153 whole entry): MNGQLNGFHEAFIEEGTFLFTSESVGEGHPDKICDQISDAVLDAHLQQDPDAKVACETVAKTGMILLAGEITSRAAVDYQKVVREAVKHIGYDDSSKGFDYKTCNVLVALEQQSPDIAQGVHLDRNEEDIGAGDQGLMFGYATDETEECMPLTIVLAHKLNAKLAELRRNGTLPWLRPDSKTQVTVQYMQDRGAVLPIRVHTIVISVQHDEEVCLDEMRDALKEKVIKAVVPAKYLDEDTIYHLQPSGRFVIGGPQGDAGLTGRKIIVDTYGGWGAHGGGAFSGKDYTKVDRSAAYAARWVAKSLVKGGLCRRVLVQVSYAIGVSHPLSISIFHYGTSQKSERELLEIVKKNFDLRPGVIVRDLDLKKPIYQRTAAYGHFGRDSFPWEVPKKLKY

IC50 | SMILES
< 200 nM | O=c1nc(Nc2ccncc2)c2ccc(C(F)(F)F)nc2n1-c1ccccc1Cl [Example 421, 1-(2-chlorophenyl)-4-(pyridin-4-yl-amino)-7-(trifluoromethyl)pyrido[2,3-d]-pyrimidin-2(1H)-one]
< 200 nM | CNc1nc(=O)n(-c2ncccc2Cl)c2cc(Cl)ccc12 [Example 370, 7-chloro-1-(3-chloro(2-pyridyl))-4-(methylamino)hydroquinazolin-2-one]
< 200 nM | O=c1nc(N2CCCC2)c2ccc(C3CC3)cc2n1-c1ccccc1 [Example 386, 7-cyclopropyl-1-phenyl-4-pyrrolidin-1-ylhydroquinazolin-2-one]
< 200 nM | CNc1nc(=O)n(-c2cccc(O)c2C)c2cc(Cl)ccc12 [Example 157, 7-chloro-1-(3-hydroxy-2-methylphenyl)-4-(methylamino)hydroquinazolin-2-one]
< 200 nM | O=c1nc(N2CC(F)C2)c2ccc(C(F)(F)F)nc2n1-c1ccccc1Cl [Example 315, 1-(2-chlorophenyl)-4-(3-fluoroazetidin-1-yl)-7-(trifluoromethyl)pyrido[2,3-d]pyrimidin-2(1H)-one]
< 200 nM | CNc1nc(=O)n(-c2ccc3[nH]cnc3c2)c2cc(Cl)ccc12 [Example 307, 1-benzimidazol-5-yl-7-chloro-4-(methyl-amino)hydroquinazolin-2-one]
< 200 nM | CNc1nc(=O)n(-c2cccc(C(N)=O)c2)c2cc(Cl)ccc12 [Example 134, 3-[7-chloro-4-(methylamino)-2-oxo-hydroquinazolin-1-yl]benzamide]
1000 to 10000 nM | O=C(O)c1cccc(-n2c(=O)[nH]c(=O)c3ccc(Cl)cc32)c1 [Example 156, 3-(7-chloro-4-hydroxy-2-oxohydro-quinazolinyl)benzoic acid]
< 200 nM | O=c1nc(N2CC(O)C2)c2ccc(C(F)(F)F)cc2n1-c1ccccc1 [Example 164]
< 200 nM | O=c1nc(NCC(F)F)c2ccc(C(F)(F)F)cc2n1-c1ccccc1Cl [Example 100, 1-(2-chlorophenyl)-4-[(2,2-difluoro-ethyl)amino]-7-(trifluoromethyl)hy-droquinazolin-2-one]
< 200 nM | N#Cc1cccc(-n2c(=O)nc(N3CC(O)C3)c3ccc(C(F)(F)F)nc32)c1 [Example 162, 3-(4-(3-hydroxyazetidin-1-yl)-2-oxo-7-(trifluoromethyl)pyrido[2,3-d]pyrimidin-1(2H)-yl)benzonitrile]
< 200 nM | CNc1nc(=O)n(-c2ccccc2Cl)c2cc(C(F)(F)F)c(Br)cc12 [Example 302, 6-bromo-1-(2-chlorophenyl)-4-(methylamino)-7-(trifluoromethyl)-quinazolin-2(1H)-one]
< 200 nM | N#Cc1cccc(-n2c(=O)nc(N3CC[C@H](O)C3)c3ccc(C(F)(F)F)nc32)c1 [Example 182, (S)-3-(4-(3-hydroxypyrrolidin-1-yl)-2-oxo-7-(trifluoromethyl)pyrido[2,3-d]pyrimidin-1(2H)-yl)benzonitrile]
< 200 nM | CNc1nc(=O)n(-c2cccnc2)c2cc(Cl)ccc12 [Example 114, 7-chloro-4-(methylamino)-1-(3-pyridyl)-hydroquinazolin-2-one]
< 200 nM | Cc1ccccc1-n1c(=O)nc(N2CC(O)C2)c2ccc(C(F)(F)F)nc21 [Example 165]
< 200 nM | [2H]C([2H])([2H])Nc1nc(=O)n(-c2ccccc2)c2nc(C(F)(F)F)ccc12 [Example 366, 4-((methyl-d3)amino)-1-phenyl-7-(trifluoromethyl)pyrido[2,3-d]pyrimidin-2(1H)-one]

IC50 | SMILES
200 to 500 nM | O=c1nc(NC2CC3(C2)CS(=O)(=O)C3)c2ccc(C(F)(F)F)nc2n1-c1ccccc1Cl [Example 316, 1-(2-chlorophenyl)-4-((2,2-dioxido-2-thiaspiro[3.3]heptan-6-yl)amino)-7-(trifluoromethyl)pyrido[2,3-d]pyrimidin-2(1H)-one]
< 200 nM | O=c1nc(NCC(F)F)c2ccc(C3CC3)cc2n1-c1ccccc1 [Example 373]
200 to 500 nM | CNc1nc(=O)n(-c2ccnc(OC)c2)c2nc(C(F)(F)F)ccc12 [Example 90, 1-(2-methoxypyridin-4-yl)-4-(methyl-amino)-7-(trifluoromethyl)pyrido[2,3-d]-pyrimidin-2(1H)-one]
< 200 nM | CNc1nc(=O)n(-c2ccc(C)nc2)c2nc(C(F)(F)F)ccc12 [Example 314]
< 200 nM | O=c1nc(N[C@H]2CC[C@@H]2O)c2ccc(C(F)(F)F)nc2n1-c1ccccc1Cl (atropisomer, axis not shown; (Sa)) [Example 337, 4-[((1S,2 S)-2-hydroxycyclobutyl)-amino]-(1Sa)-(2-chlorophenyl)-7-(trifluoromethyl)hydro-pyridino [2,3-d]-pyrimidin-2-one]
< 200 nM | O=c1nc(NC2COC2)c2ccc(C(F)(F)F)nc2n1-c1ccccc1Cl [Example 274, 1-(2-chlorophenyl)-4-(oxetan-3-yl-amino)-7-(trifluoromethyl)pyrido[2,3-d]pyrimidin-2(1H)-one]
< 200 nM | CNc1nc(=O)n(-c2ccn[nH]2)c2cc(Cl)ccc12 [Example 214, 7-chloro-4-(methylamino)-1-pyrazol-5-ylhydroquinazolin-2-one]
500 to 1000 nM | O=c1[nH]c(=O)n(-c2ccccc2)c2cc(C3CC3)ccc12 [Example 130, 7-cyclopropyl-1-phenyl-1,3-dihydro-quinazoline-2,4-dione]
< 200 nM | O=c1nc(NCC(F)(F)F)c2ccc(C(F)(F)F)cc2n1-c1ccccc1 [Example 118]
< 200 nM | O=c1nc(N[C@H]2C[C@H](O)C2)c2ccc(C(F)(F)F)nc2n1-c1ccccc1Cl [Example 334, 1-(2-chlorophenyl)-4-(((1r,3r)-3-hydroxycyc1obutyl)amino)-7-(trifluoro-methyl)pyrido[2,3-d]pyrimidin-2(1H)-one]
< 200 nM | CNc1nc(=O)n(-c2ccccc2Cl)c2cc(C(F)(F)F)c(F)cc12 [Example 304, 1-(2-chlorophenyl)-6-fluoro-4-(methyl-amino)-7-(trifluoromethyl)hydro-quinazolin-2-one]
< 200 nM | CNc1nc(=O)n(-c2ccccc2OC)c2cc(Cl)ccc12 [Example 226, 7-chloro-1-(2-methoxyphenyl)-4-(methylamino)hydroquinazolin-2-one]
< 200 nM | C[C@]1(O)C[C@H](Nc2nc(=O)n(-c3ccccc3Cl)c3nc(C(F)(F)F)ccc23)C1 [Example 300, 4-[((trans)-3-hydroxy-3-methylcyclo-butyl)amino]-1-(2-chlorophenyl)-7-(trifluoromethyl)pyrido[2,3-d]pyrimidin-2(1H)-one]
< 200 nM | O=c1nc(N2CC(O)C2)c2ccc(C(F)(F)F)nc2n1-c1ccccc1Cl [Example 161, 1-(2-chlorophenyl)-4-(3-hydroxy-azetidinyl)-7-(trifluoromethyl)pyrido-[2,3-d]pyrimidin-2(1H)-one]
< 200 nM | Cc1ncccc1-n1c(=O)[nH]c(=O)c2ccc(C(F)(F)F)nc21 [Example 364, 1-(2-methylpyridin-3-yl)-7-(trifluoro-methyl)pyrido[2,3-d]pyrimidine-2,4(1H,3H)-dione]

SMILES | IC50
CNc1nc(=O)n(Cc2c[nH]cn2)c2cc(Cl)ccc12 [Example 262, 7-chloro-1-(imidazol-4-ylmethyl)-4-(methylamino)hydroquinazolin-2-one] | < 200 nM

Same assay, conditions: L-methionine 500 uM, ATP 500 uM, numeric bound

IC50 | SMILES
> 10000 nM | Nc1nc(=O)n(-c2ccc3nccn3c2)c2cc(Cl)ccc12 [Example 252, 4-amino-7-chloro-1-(4-hydroimidazo-[1,2-a]pyridin-6-yl)hydroquinazolin-2-one]
> 10000 nM | CNc1nc(=O)n(-c2ccccc2)c2cc(Cl)cc(OC3COC3)c12 [Example 202, 7-chloro-4-(methylamino)-5-oxetan-3-yloxy-1-phenylhydroquinazolin-2-one]
> 10000 nM | O=c1[nH]c(=O)n(-c2ccccc2Cl)c2nc(C(F)(F)F)ccc12 [Example 288, 1-(2-chlorophenyl)-4-hydroxy-7-(trifluoromethyl)hydropyridino[2,3-d]-pyrimidin-2-one]
> 10000 nM | O=c1[nH]c(=O)n(-c2ccccc2)c2cc(CO)ccc12 [Example 212, 7-(hydroxymethyl)-1-phenyl-1,3-dihydroquinazoline-2,4-dione]
> 10000 nM | CNc1nc(=O)n(-c2cc(OC)ccn2)c2nc(C(F)(F)F)ccc12 [Example 93, 1-(4-methoxypyridin-2-yl)-4-(methyl-amino)-7-(trifluoromethyl)pyrido[2,3-d]pyrimidin-2(1H)-one]
> 10000 nM | CNc1nc(=O)n(-c2ccccc2)c2cc(Cl)cc(OC(C)C)c12 [Example 349, 7-chloro-4-(methylamino)-5-(methyl-ethoxy)-1-phenylhydroquinazolin-2-one]
> 10000 nM | CNc1nc(=O)n(-c2ccccc2)c2cc(Cl)cc(-n3nccn3)c12 [Example 209, 7-chloro-4-(methylamino)-1-phenyl-5-(1,2,3-triazol-2-yl)quinazolin-2(1H)-one]
